Literature values in PMC11291603, “Histidine-based ionizable cationic surfactants: novel biodegradable agents for hydrophilic macromolecular drug delivery” (Drug Delivery and Translational Research, 2024).

Assays:
[1] = as specified by the manufacturer
[2] = literature value, no reference given

Structure (SMILES)	Aqueous solubility [1] [µg/mL]	pKa of the imidazolium ring [2]
CCCCCCCCC(CO)CCCCCC (centres unmarked) [2-hexyl-1-decanol]	1	–
N[C@@H](Cc1c[nH]cn1)C(=O)O [histidine]	–	6.0-6.1
